These results are taken from patent US6426351B1, “Chelerythrine-based therapies for cancer” (priority 2000, dated 2002).

Read-outs that look alike come from different tables or passages of the source.

In data set [1] the test system is SQ20B. Kind of data set: Clonogenic survival of SQ20B with chelerythrine chloride and adriamycin. The class given is cell-based, human.
Data set [2] can be described thus: Acute lethality (LD50), intraperitoneal. To be noted: mouse, in vivo; intraperitoneal (IP) in mice; read-out: LD50 (dose causing a 50% mortality). On the procedure: Basal activity of the enzyme (the activity in the absence of Ca^++, phosphatidylserine and dioleine) was not affected. In the present invention, the LD50 (dose causing a 50% mortality) was 20 mg/kg intraperitoneal (IP) in mice.

Data set [3] has as its system SQ-20B xenografts. Description: SQ-20B xenograft tumor growth in nude mice. Conditions: for mean tumor volume: IP. The class given is in vivo. The method, then: Athymic (nude) mice were injected SC in the right hind limb with 5×10^6 SQ20B cells. Tumors were allowed to grow for 8 days at which time treatment was started. Control mice were weighed and injected IP with PBS on days 8, 10, and 12. Treatment group 2 (n=10 were injected once IP on days 8, 10, and 12 with 2.5 mg/kg chelerythrine chloride, treatment group 3 (n=8) were injected once IP on days 8, 10, and 12 with 5 mg/kg chelerythrine chloride, and treatment group 4 (n=8) were injected once IP on days 8, 11 and 14 with 5 mg/kg chelerythrine chloride. Tumor volume was determined on days 8, 10, 13, 15, 17, 21. Each data point represents the mean of 1-3 individual studies +/−SEM. The Mann-Whitney Rank Sum Test (p<0.05) denoted in the graphs by “*”.
SQ-20B (1-5×10^6 tumor cells were injected into the right hind limbs of Sprague-Dawley nude mice (Fredrick Cancer Research Institute, Fredrick Md.). Xenografts were grown for 2-3 wk at which time animals were sorted into treatment groups such that the mean tumor volume was 45 mm^3+/−4.5 mm^3 (SD). At day 0, initial tumor volume was determined by direct measurement with calipers, and tumor volume was deterred and calculated using the equation 1×w^2×0.5 (Hallahan et al., 1995). During treatment tumor volumes were measured twice weekly and are presented as percent of original tumor volume. Data are presented as fractional tumor volume +/−SEM. Significance analyzed using the Mann-Whitney Rank Sum Test (p<0.05) and denoted in the graphs by “*”.
(§1) Control mice (n=12) were weighed and injected IP with PBS on days 8, 10, and 12. To determine the proper injection volume, the weight of a mouse (in grams) was divided by 100, and the resulting number (in μl ) was used. Chelerythrine was dissolved in the corresponding volume of PBS. Mice in treatment group 2 (n=10) were injected IP on days 8, 10, and 12 with […]. Treatment group 3 (n=8) mice revere injected IP on days 8, 11, and 14 with 5 mg/kg chelerythrine chloride. Treatment group 4 mice (n=10) were injected IP on days 8, 11, 14, and 17 with 5 mg/kg chelerythrine chloride. Volume was determined on days 8, 10, 13, 15, 17, 21. Body weight was measured on days 8, 9, 10, 11, 12, 13, 14, 15, 16, 17, 18, 21. Each data point represents the mean of 1-3 individual studies (minimum of 8 mice/treatment groups).
Mice bearing SQ-2QB xenografts (n>8 for all groups) were injected IP with 2.5 mg/kg on days 8, 10, 12 (Group 2, n=10), 5mg/kg on days 8, 10, 12 (Group 3, n=8), and 5 mg/kg on days 8, 11, 14 (Group 4, n=8). […] By day 21, the mean tumor volumes measured 370 mm^3 in control group, 215 mm^3 in group 1, 197 mm^3 in group 2, and 115 mm^3 in group 3. […]

In data set [4] the test system is SQ-20B cells. Kind of data set: DAPI staining of cell and nuclear morphology (apoptosis). Conditions: 5 μM chelerythrine, 72 h following treatment. The format is cell-based, human. The method, then: DAPI was used to visualize nuclei […] and overlaid to the phase contrast image. Left, untreated control cells, right 5 μM chelerythrine treated cells.
5×10^5 SQ-20B cells were centrifuged at 1000 rpm and resuspended in approximately 100 μl of media. The cell suspension was then […] with 100 μl of DAPI (4′, 6-iamidino-2-phenylindole, Sigma, 1 μg/ml in PBT [PBS+1% Triton X-100]. One drop of this mixture was then placed on a microslide with a coverslip. The cells were viewed by fluorescence microscopy using an Olympus BX-40 microscope with a 100 Watt Mercury lamp, a 16 or 40×Fluorite objective, N.A. 0.75, (Leco #1-UB527) and a UV filter cube (ex 330-385 nm, em 420 nm, wide band pass, Leco #U-M536). Images were photographed using an Optronics cooled low-light video camera (Leco #DEI-470TB) with a 2× coupler (Leco #HR200-CMT). The image was saved to a digital file at 72 dpi for subsequent image processing with Paint Shop Pro 5 (JASC) running on a Windows NT4 workstation.
The inventors examined whether the concentrations of chelerythrine that decrease viability in the MTT assay induce apoptosis of SQ-20B cells. The inventors examined cell and nuclear morphology by DAPI staining (FIG. 3). Following exposure of SQ-20B cells to 5 μM chelerythrine, morphological changes consistent with apoptosis were observed (FIG. 3A) in nearly 100% of the cells 72 h following treatment.

The subject of data set [5] is MCF7, MCF7ADR, HT29, DaOY and LnCaP cells. Description: MTT cytotoxicity assay, tumor cell line panel. The class given is cell-based. Conditions: Homo sapiens, exposure to drug for 4 h, range over MCF7, MCF7ADR, read-out: ED50 (effective dose required to inhibit the growth by 50% of the cells). The method, then:
(§2) FIG. 2A depicts that MCF7 (closed circle), MCF7ADR (open circle), HT29 (open square), DAOY (closed triangle) and LnCaP (open triangle) cells were exposed to fresh medium containing increasing concentrations of chelerythrine chloride for 4 h. After 6 days (MCF7, MCF7 ADR, HT29), 7 days (DAOY) or 13 days (LnCAP), MTT analysis was performed to determine cell density. Inhibition of cell growth relative to control (zero drug addition) was calculated for each concentration. Each point represents the mean of three determinations. […] Inhibition of cell growth relative to control (zero drug addition) was calculated for each concentration. […]
(§3) Cytotoxicity was evaluated using modifications of a described MTT assay (Hansen et al., 1989). […] A microplate reader set at 570 nm was used to determine the absorbance. Results are expressed as the fraction of the optical density determined for cells treated with drug compared to those treated with vehicle.
(§4) The cytotoxic effects of chelerythrine were evaluated in 9 human tumor cell lines to assess its spectrum of activity. Chelerythrine decreased cell viability as determined by the MTT assay in a dose-dependent manner in MCF7 breast (wt p53)(Blagosklonny et al., 1995), MCF7ADR breast (resistant to adriamycin), HT29 colon (mutant p53)(Shao et al., 1997), DaOY brain (mutant p53)(U et al., 1998), and LnCaP (mutant p53) (Carroll et al., 1993) prostate cells (FIG. 2). […]

In data set [6] the test system is SQ-20B, JSQ-3, SCC-35 and SCC61 cells. Description: MTT cytotoxicity assay, oral tumor cell lines. The class given is cell-based. To be noted: Homo sapiens, SQ20B, range over SQ-20B, read-out: ED50 (the source's name). The method, then:
as §2, §3, §4

Data set [7] relates to L-1210 tumor cells. Conditions: cited from earlier work.
Data set [8] deals with SQ20B cells. Kind of data set: MTT cytotoxicity assay, SQ20B, dependence on exposure time. The class given is cell-based. To be noted: Homo sapiens, read-out: ED50 (the source's name). The method, then:
Cytotoxicity was evaluated using modifications of a described MTT assay (Hansen et al., 1989). Briefly, cells growing as a monolayer were plated at a density of 500 cells/well in 96 well-plates and allowed to grow for 24 h. […] 6-13 days after drug treatment, 25 μl of a 5 mg/ml solution of MTT was added to each well followed 4 h later by the addition of 100 μl lysing buffer (20% sodium dodecyl sulfate, 50% N, N-dimethylformamide and 0.8% acetic acid, pH 4.7) for an additional 22 h. A microplate reader set at 570 nm was used to determine the absorbance. Results are expressed as the fraction of the optical density determined for cells treated with drug compared to those treated with vehicle.
as §4, with “2). The effective dose required to inhibit the growth by 50% of the cells (ED50) ranged between 2 and 5 μM upon exposure to drug for 4 h.” for “2).”

Data set [9] in a line: Body weight and deaths in treated xenograft-bearing mice. The class given is in vivo. To be noted: 2.5-5 mg/kg IP. On the procedure:
Mice were weighed on days 8, 9, 10, 11, 12, 13, 14, 15, 16, 17, 18, 21. Symbols represent the mean weight of animals in the representative treatment groups.
as §1
At no time did body weight of any study animal fall below 90% of the initial weight at the beginning of treatment. […] Similar results were obtained in two independent studies.

For `COc1cccc2c1C(=O)c1c(O)c3c(c(O)c1C2=O)C[C@@](O)(C(=O)CO)C[C@@H]3O[C@H]1C[C@H](N)[C@H](O)[C@H](C)O1` [adriamycin, reference compound], the results for the “survival (clonogenic)” value in data set [1] (adriamycin 1 ng/mL alone (0 chelerythrine)), in [1] (adriamycin 10 ng/mL alone (0 chelerythrine)) and in data set [1] (adriamycin 50 ng/mL alone (0 chelerythrine)) were 1.09, 0.822 and 0.359, respectively.
Regarding `COc1ccc2c(c[n+](C)c3c4cc5c(cc4ccc23)OCO5)c1OC` [chelerythrine, 1,2-dimethoxy-12-methyl[1,3]benzodioxolo[5,6-c]phenanthridinium], the LD50 in data set [2] was 20 mg/kg. The “survival (clonogenic)” value in data set [1] (chelerythrine chloride 2 μM alone (0 ng/mL adriamycin)) was 0.99; in data set [1] (chelerythrine chloride 4 μM alone (0 ng/mL adriamycin)) it was 0.103; in data set [1] (chelerythrine chloride 6 μM alone (0 ng/mL adriamycin)), 0.034. Also, in data set [3] (day 21, all treatment groups), the “percent change in volume of treated tumors compared to control tumors (%T/C)” value is “less than 40%”. The mean tumor volume worked out at 215 mm^3 in [3] (day 21, group 1 as printed); 197 mm^3 in [3] (day 21, group 2 as printed); 115 mm^3 in [3] (day 21, group 3 as printed). In [4], the “cells with morphological changes consistent with apoptosis” value is about 100%. For the same molecule, the EC50 is 2 to 5 µM in data set [5], 4 to 5.2 µM in [6], 3700 nM in data set [8] (exposed for 4 h) and 1800 nM in data set [8] (exposed for 8 h). For the same molecule, the IC50 in [7] is 53 nM. Moreover, the treatment related deaths result in [9] is recorded as “no treatment related deaths”. Besides, the “body weight relative to the initial weight at the beginning of treatment” value in data set [9] (any study animal, at any time) is given as at least 90%.
